Results published in US20130157954A1, “METHODS FOR TREATMENT OR PROPHYLAXIS OF KIDNEY OR LIVER DYSFUNCTION” (NPS PHARMACEUTICALS, INC., priority 2010, published 2013).

Experiment: Example 2: liver biomarkers (albumin, gamma glutamyl transferase, total bilirubin, ALT, AST, ALP) in short bowel syndrome patients, every four weeks for 24 weeks; also sorted by >10% change from baseline
Format: in vivo, Human
Protocol: To further confirm the results of Example 1, a further study was conducted involving more individuals and additional diagnostic biomarkers. Human patients with short bowel syndrome were divided into two groups: a control group (43 total individuals) to receive placebo, and an experimental group (42 total individuals) to receive teduglutide at 0.05 mg/kg/day throughout the study. Patients were treated by subcutaneous injection of placebo or the appropriate dose of teduglutide. Known biomarkers of liver function were monitored every four weeks, for 24 weeks. The liver biomarkers tested included albumin, gamma glutamyl transferase, total bilirubin, ALT and AST and ALP. Before administration of placebo or teduglutide, diagnostic biomarker levels were tested to establish a baseline for each individual.
To determine the effect of GLP-2 on the levels of the diagnostic biomarkers, the average level of each biomarker was measured for the placebo and teduglutide treated groups for each visit. Furthermore, the average change from baseline was calculated using the established baseline values. For FIGS. 17-28, p-values were calculated using the t-test.
P values are provided, which were calculated for each distribution of biomarker changes for each week using the chi-squared test.

[1] = Endpoint (last assessment after start of treatment), 0.05 mg/kg/d, m = 42
[2] = Endpoint (last assessment after the start of treatment), 0.05 mg/kg/d

CC[C@H](C)[C@H](NC(=O)[C@H](Cc1ccccc1)NC(=O)[C@H](CC(=O)O)NC(=O)[C@H](CCCNC(=N)N)NC(=O)[C@H](C)NC(=O)[C@H](C)NC(=O)[C@H](CC(C)C)NC(=O)[C@H](CC(N)=O)NC(=O)[C@H](CC(=O)O)NC(=O)[C@H](CC(C)C)NC(=O)[C@@H](NC(=O)[C@@H](NC(=O)[C@H](CC(N)=O)NC(=O)[C@H](CCSC)NC(=O)[C@H](CCC(=O)O)NC(=O)[C@H](CC(=O)O)NC(=O)[C@H](CO)NC(=O)[C@H](Cc1ccccc1)NC(=O)[C@H](CO)NC(=O)CNC(=O)[C@H](CC(=O)O)NC(=O)CNC(=O)[C@@H](N)Cc1c[nH]cn1)[C@@H](C)O)[C@@H](C)CC)C(=O)N[C@@H](CC(N)=O)C(=O)N[C@@H](Cc1c[nH]c2ccccc12)C(=O)N[C@@H](CC(C)C)C(=O)N[C@H](C(=O)N[C@@H](CCC(N)=O)C(=O)N[C@H](C(=O)N[C@@H](CCCCN)C(=O)N[C@H](C(=O)N[C@H](C(=O)N[C@@H](CC(=O)O)C(=O)O)[C@@H](C)O)[C@@H](C)CC)[C@@H](C)O)[C@@H](C)CC [teduglutide]
level of diagnostic biomarkers elevated in liver dysfunction vs placebo cohort (0.05 mg/kg/day, Table 3, FIGS. 17-20 and 23-28): lower level, on average
likelihood of >10% decrease in liver biomarkers vs placebo (0.05 mg/kg/day, Table 4): more likely to experience a >10% decrease
likelihood of >10% increase in liver biomarkers vs placebo (0.05 mg/kg/day, Table 4): less likely to experience a >10% increase
measured level of albumin relative to placebo cohort (0.05 mg/kg/day, as treatment progressed, FIGS. 21 and 22): became elevated
ALT: subjects Within 10% of Baseline [1]: 12 (28.6%) n (%)
ALT: subjects with >10% decrease from Baseline [1]: 25 (59.5%) n (%)
ALT: subjects with >10% increase from Baseline [1]: 5 (11.9%) n (%)
AST: subjects Within 10% of Baseline [1]: 11 (26.2%) n (%)
AST: subjects with >10% decrease from Baseline [1]: 25 (59.5%) n (%)
AST: subjects with >10% increase from Baseline [1]: 6 (14.3%) n (%)
Albumin: subjects Within 10% of Baseline [1]: 40 (95.2%) n (%)
Albumin: subjects with >10% decrease from Baseline [1]: 2 (4.8%) n (%)
Albumin: subjects with >10% increase from Baseline [1]: 0 n (%)
Alkaline Phosphatase: subjects Within 10% of Baseline [1]: 12 (28.6%) n (%)
Alkaline Phosphatase: subjects with >10% decrease from Baseline [1]: 24 (57.1%) n (%)
Alkaline Phosphatase: subjects with >10% increase from Baseline [1]: 6 (14.3%) n (%)
Bilirubin: subjects Within 10% of Baseline [1]: 8 (19.0%) n (%)
Bilirubin: subjects with >10% decrease from Baseline [1]: 27 (64.3%) n (%)
Bilirubin: subjects with >10% increase from Baseline [1]: 7 (16.7%) n (%)
ALKALINE PHOSPHATASE Change from Baseline Median [2]: −22 U/L
ALT Change from Baseline, Max [2]: 21 U/L
ALT Change from Baseline, Median [2]: −4 U/L
ALT Change from Baseline, Min [2]: −60 U/L
ALT Observed Value, Max [2]: 149 U/L
ALT Observed Value, Mean [2]: 31.0 U/L
ALT Observed Value, Min [2]: 7 U/L
AST Change from Baseline, Max [2]: 14 U/L
AST Change from Baseline, Mean [2]: −5.4 U/L
AST Change from Baseline, Median [2]: −3 U/L
AST Change from Baseline, Min [2]: −47 U/L
AST Observed Value, Max [2]: 77 U/L
AST Observed Value, Mean [2]: 27.0 U/L
AST Observed Value, Median [2]: 24 U/L
AST Observed Value, Min [2]: 11 U/L
Albumin Change from Baseline, Max [2]: 3 g/L
Albumin Change from Baseline, Mean [2]: -0.5 g/L
Albumin Change from Baseline, Median [2]: 0 g/L
Albumin Change from Baseline, Min [2]: -8 g/L
Albumin Observed Value, Max [2]: 48 g/L
Albumin Observed Value, Median [2]: 42 g/L
Albumin Observed Value, Min [2]: 33 g/L
Alkaline Phosphatase Change from Baseline, Max [2]: 33 U/L
Alkaline Phosphatase Change from Baseline, Min [2]: −122 U/L
Alkaline Phosphatase Observed Value, Max [2]: 328 U/L
Alkaline Phosphatase Observed Value, Min [2]: 49 U/L
Bilirubin Change from Baseline, Max [2]: 3.4 µmol/L
Bilirubin Change from Baseline, Min [2]: -26.1 µmol/L
Bilirubin Observed Value, Max [2]: 31.3 µmol/L
Bilirubin Observed Value, Min [2]: 2.5 µmol/L
Gamma Glutamyl Transferase Change from Baseline, Max [2]: 46 U/L
Gamma Glutamyl Transferase Change from Baseline, Median [2]: −6 U/L
Gamma Glutamyl Transferase Change from Baseline, Min [2]: −144 U/L
Gamma Glutamyl Transferase Observed Value, Max [2]: 228 U/L
Gamma Glutamyl Transferase Observed Value, Median [2]: 42 U/L
Gamma Glutamyl Transferase Observed Value, Min [2]: 7 U/L
ALKALINE PHOSPHATASE Change from Baseline Median (Week 2, 0.05 mg/kg/d): −8 U/L
ALT Change from Baseline, Max (Week 2, 0.05 mg/kg/d): 48 U/L
ALT Change from Baseline, Mean (Week 2, 0.05 mg/kg/d): −8.9 U/L
ALT Change from Baseline, Median (Week 2, 0.05 mg/kg/d): −5.5 U/L
ALT Change from Baseline, Min (Week 2, 0.05 mg/kg/d): −58 U/L
ALT Observed Value, Max (Week 2, 0.05 mg/kg/d): 142 U/L
ALT Observed Value, Min (Week 2, 0.05 mg/kg/d): 9 U/L
AST Change from Baseline, Max (Week 2, 0.05 mg/kg/d): 22 U/L
AST Change from Baseline, Mean (Week 2, 0.05 mg/kg/d): −3.6 U/L
AST Change from Baseline, Median (Week 2, 0.05 mg/kg/d): −3 U/L
AST Change from Baseline, Min (Week 2, 0.05 mg/kg/d): −21 U/L
AST Observed Value, Max (Week 2, 0.05 mg/kg/d): 78 U/L
AST Observed Value, Mean (Week 2, 0.05 mg/kg/d): 29.0 U/L
AST Observed Value, Min (Week 2, 0.05 mg/kg/d): 11 U/L
Albumin Change from Baseline, Max (Week 2, 0.05 mg/kg/d): 3 g/L
Albumin Change from Baseline, Mean (Week 2, 0.05 mg/kg/d): -0.9 g/L
Albumin Change from Baseline, Median (Week 2, 0.05 mg/kg/d): -1 g/L
Albumin Change from Baseline, Min (Week 2, 0.05 mg/kg/d): -5 g/L
Albumin Observed Value, Max (Week 2, 0.05 mg/kg/d): 47 g/L
Albumin Observed Value, Median (Week 2, 0.05 mg/kg/d): 42 g/L
Albumin Observed Value, Min (Week 2, 0.05 mg/kg/d): 35 g/L
Alkaline Phosphatase Change from Baseline, Max (Week 2, 0.05 mg/kg/d): 27 U/L
Alkaline Phosphatase Change from Baseline, Min (Week 2, 0.05 mg/kg/d): −76 U/L
Alkaline Phosphatase Observed Value, Max (Week 2, 0.05 mg/kg/d): 298 U/L
Alkaline Phosphatase Observed Value, Min (Week 2, 0.05 mg/kg/d): 53 U/L
Bilirubin Change from Baseline, Max (Week 2, 0.05 mg/kg/d): 8.6 µmol/L
Bilirubin Change from Baseline, Min (Week 2, 0.05 mg/kg/d): -18.2 µmol/L
Bilirubin Observed Value, Max (Week 2, 0.05 mg/kg/d): 57.4 µmol/L
Bilirubin Observed Value, Min (Week 2, 0.05 mg/kg/d): 2.4 µmol/L
Gamma Glutamyl Transferase Change from Baseline, Max (Week 2, 0.05 mg/kg/d): 117 U/L
Gamma Glutamyl Transferase Change from Baseline, Mean (Week 2, 0.05 mg/kg/d): 7.4 U/L
Gamma Glutamyl Transferase Change from Baseline, Median (Week 2, 0.05 mg/kg/d): 2.5 U/L
Gamma Glutamyl Transferase Change from Baseline, Min (Week 2, 0.05 mg/kg/d): −48 U/L
Gamma Glutamyl Transferase Observed Value, Max (Week 2, 0.05 mg/kg/d): 279 U/L
Gamma Glutamyl Transferase Observed Value, Min (Week 2, 0.05 mg/kg/d): 11 U/L
ALT: subjects Within 10% of Baseline (Week 2, 0.05 mg/kg/d, m = 40): 10 (25.0%) n (%)
ALT: subjects with >10% decrease from Baseline (Week 2, 0.05 mg/kg/d, m = 40): 23 (57.5%) n (%)
ALT: subjects with >10% increase from Baseline (Week 2, 0.05 mg/kg/d, m = 40): 7 (17.5%) n (%)
AST: subjects Within 10% of Baseline (Week 2, 0.05 mg/kg/d, m = 40): 15 (37.5%) n (%)
AST: subjects with >10% decrease from Baseline (Week 2, 0.05 mg/kg/d, m = 40): 20 (50.0%) n (%)
AST: subjects with >10% increase from Baseline (Week 2, 0.05 mg/kg/d, m = 40): 5 (12.5%) n (%)
Albumin: subjects Within 10% of Baseline (Week 2, 0.05 mg/kg/d, m = 40): 37 (92.5%) n (%)
Albumin: subjects with >10% decrease from Baseline (Week 2, 0.05 mg/kg/d, m = 40): 3 (7.5%) n (%)
Albumin: subjects with >10% increase from Baseline (Week 2, 0.05 mg/kg/d, m = 40): 0 n (%)
Alkaline Phosphatase: subjects Within 10% of Baseline (Week 2, 0.05 mg/kg/d, m = 40): 19 (47.5%) n (%)
Alkaline Phosphatase: subjects with >10% decrease from Baseline (Week 2, 0.05 mg/kg/d, m = 40): 15 (37.5%) n (%)
Alkaline Phosphatase: subjects with >10% increase from Baseline (Week 2, 0.05 mg/kg/d, m = 40): 6 (15.0%) n (%)
